Source: the NIST ThermoML archive (doi:10.1016/j.fluid.2006.03.014)

Conditions: Liquid

CC(C)(N)CO [2-amino-2-methylpropan-1-ol]
Conditions	vapor or sublimation pressure [kPa]
373.25 K	8
381.35 K	12
388.05 K	16
393.05 K	20
397.25 K	24
401.05 K	28
404.45 K	32
407.75 K	36
410.35 K	40
412.95 K	44
415.15 K	48
416.65 K	50.7
418.15 K	53.3
419.95 K	57.3
421.85 K	61.3
423.65 K	65.3
424.45 K	66.7
425.55 K	69.3
427.15 K	73.3
429.65 K	80
429.75 K	80
431.85 K	85.3
433.65 K	90.7
435.35 K	96
436.85 K	101.3
